Experiments:
[1] = Degree of hydrolysis of stearoxytrimethylsilane to stearyl alcohol in ethanol/water at varying pH, by GC analysis; assay type: physicochemical; settings: for % Hydrolysis of Stearoxytrimethylsilane to Stearyl Alcohol: 25° C., 5 wt% in 90 wt% ethanol/5 wt% D.I. water
From the text: The pearlescent effect of the present invention appears to be produced by the interaction of the siloxane compound, trimethylsilylalkylsilsesquioxane in the alcoholic hydrogel. It is believed that the trimethylsilylalkylsilsesquioxanes, such as stearoxytrimethylsilane, which is initially a liquid in anhydrous form, after dispersion in the alcoholic hydrogel, undergoes a degree of hydrolysis which results in the formation of finely dispersed crystals of pure stearyl alcohol in the alcoholic hydrogel. This process continues until the pearlescent appearance, or the desired degree of opacity is achieved. The degree of pearlescence or the density of the opacity can be controlled by controlling the amount of the siloxane and other components. The pH of the mixture influences the speed of the hydrolysis reaction. Preferably, the pH of the mixture of the alcoholic hydrogel and the trimethylsilylalkylsilsesquioxane is from 3 to 6.
The degree of hydrolysis of stearoxytrimethylsilane was determined in an ethanol/water mixture at varying pH levels ranging from 4.4 to 9.1. A mixture comprising 5 weight percent anhydrous stearoxytrimethylsilane (Available from Clariant Corp., as SILCARE 1 M71), 90 weight percent ethanol and 5 weight percent de-ionized water (D.I.) was subjected to various pH levels and the degree of hydrolysis to stearyl alcohol was determined by GC analysis.

[2] = cited from earlier work

CCCCCCCCCCCCCCCCCCO[Si](C)(C)C [Stearoxytrimethylsilane, stearoxytrimethylsilane]
speed of hydrolysis ([1]; below a pH of 6): quickly hydrolyses
% Hydrolysis of Stearoxytrimethylsilane to Stearyl Alcohol ([1]; pH (initial) 4.4, 2 Days): >99%
% Hydrolysis of Stearoxytrimethylsilane to Stearyl Alcohol ([1]; pH (initial) 4.4, 14 Days): >99%
% Hydrolysis of Stearoxytrimethylsilane to Stearyl Alcohol ([1]; pH (initial) 4.4, 15 minutes (initial)): >99%
% Hydrolysis of Stearoxytrimethylsilane to Stearyl Alcohol ([1]; pH (initial) 5.3, 2 Days): >99%
% Hydrolysis of Stearoxytrimethylsilane to Stearyl Alcohol ([1]; pH (initial) 5.3, 14 Days): >99%
% Hydrolysis of Stearoxytrimethylsilane to Stearyl Alcohol ([1]; pH (initial) 5.3, 15 minutes (initial)): >99%
% Hydrolysis of Stearoxytrimethylsilane to Stearyl Alcohol ([1]; pH (initial) 5.5, 2 Days): 97%
% Hydrolysis of Stearoxytrimethylsilane to Stearyl Alcohol ([1]; pH (initial) 5.5, 14 Days): >99%
% Hydrolysis of Stearoxytrimethylsilane to Stearyl Alcohol ([1]; pH (initial) 5.5, 15 minutes (initial)): 55%
% Hydrolysis of Stearoxytrimethylsilane to Stearyl Alcohol ([1]; pH (initial) 6.2, 2 Days): 36%
% Hydrolysis of Stearoxytrimethylsilane to Stearyl Alcohol ([1]; pH (initial) 6.2, 14 Days): 95%
% Hydrolysis of Stearoxytrimethylsilane to Stearyl Alcohol ([1]; pH (initial) 6.2, 15 minutes (initial)): 6%
% Hydrolysis of Stearoxytrimethylsilane to Stearyl Alcohol ([1]; pH (initial) 8.1, 2 Days): 10%
% Hydrolysis of Stearoxytrimethylsilane to Stearyl Alcohol ([1]; pH (initial) 8.1, 14 Days): 48%
% Hydrolysis of Stearoxytrimethylsilane to Stearyl Alcohol ([1]; pH (initial) 8.1, 15 minutes (initial)): 2%
% Hydrolysis of Stearoxytrimethylsilane to Stearyl Alcohol ([1]; pH (initial) 9.1, 2 Days): 4%
% Hydrolysis of Stearoxytrimethylsilane to Stearyl Alcohol ([1]; pH (initial) 9.1, 14 Days): 21%
% Hydrolysis of Stearoxytrimethylsilane to Stearyl Alcohol ([1]; pH (initial) 9.1, 15 minutes (initial)): 2%

CCCCCCCCCCCCCCCCCCO [Stearyl alcohol]
solubility in alcohol ([2]; alcohol): soluble
solubility in water ([2]; water): insoluble
